Experimental findings from ChEMBL document CHEMBL1145414, “Candidaspongiolides, distinctive analogues of tedanolide from sponges of the genus Candidaspongia” (2007) are described below.

The term GI50 denotes the concentration at which growth is held to half of that of the control. A low value points to greater sensitivity of the cells.

This experiment is described as follows: Cytotoxicity against NCI60 cells. The class given is functional. The following applies: Homo sapiens.

In brackets after ≈: the same amount, converted by molar mass.

Take `C/C=C\[C@H](C)[C@H]1O[C@@]1(C)[C@@H](O)[C@H]1COC(=O)[C@H](O)[C@@H](OC)[C@H](C)C(=O)[C@H](C)[C@@H](O)/C(C)=C/[C@H](C)C(=O)CC[C@@H](C)C1=O`: the concentration for 50% growth inhibition (GI50) was 0.09 ng/mL (≈ 0.000151 µM).

Consider `C/C=C\[C@H](C)[C@H]1OC1(C)[C@@H](O)[C@H]1COC(=O)[C@H](O)[C@@H](OC)[C@H](C)C(=O)[C@H](C)[C@@H](OC(C)=O)/C(C)=C/[C@H](C)C(=O)C[C@H](O)[C@@](O)(CO)C1=O` (single isomer, unassigned), for which halving of growth (GI50) required 42 ng/mL (≈ 0.0613 µM).
